Legend:
Assay in all cases: cells
Details in all cases: Homo sapiens
COR-L88 = type: functional, cell-based;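 note: growth inhibition of COR-L88 cells, read out with a cell viability assay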
Description: SANGER: Inhibition of human COR-L88 cell growth in a cell viability assay.

D-263MG = type: functional, cell-based
Description: SANGER: Inhibition of human D-263MG cell growth in a cell viability assay.

D283 Med = type: functional, cell-based
Description: SANGER: Inhibition of human D-283MED cell growth in a cell viability assay.

DSH1 = type: functional, cell-based;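 note: growth inhibition of human DSH1 cells, measured with a cell viability readout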
Description: SANGER: Inhibition of human DSH1 cell growth in a cell viability assay.

EC-GI-10 = type: functional, cell-based
Description: SANGER: Inhibition of human EC-GI-10 cell growth in a cell viability assay.

EM-2 = type: functional, cell-based;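 note: growth inhibition of EM-2 cells, read out with a cell viability assay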
Description: SANGER: Inhibition of human EM-2 cell growth in a cell viability assay.

ES3 = type: functional, cell-based;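 note: growth inhibition of ES3 cells, read out with a cell viability assay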
Description: SANGER: Inhibition of human ES3 cell growth in a cell viability assay.

ES8 = type: functional, cell-based;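 note: growth inhibition of human ES8 cells, read out with a cell viability assay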
Description: SANGER: Inhibition of human ES8 cell growth in a cell viability assay.

EW-11 = type: functional, cell-based;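 note: growth inhibition of human EW-11 cells, measured with a cell viability assay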
Description: SANGER: Inhibition of human EW-11 cell growth in a cell viability assay.

EW-24 = type: functional, cell-based;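 note: human EW-24 cancer cell line, growth inhibition read out via a cell viability assay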
Description: SANGER: Inhibition of human EW-24 cell growth in a cell viability assay.

GCIY = type: functional, cell-based;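 note: growth inhibition of the human GCIY cell line, read out by a cell viability assay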
Description: SANGER: Inhibition of human GCIY cell growth in a cell viability assay.

GOTO = type: functional, cell-based;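 note: growth inhibition of GOTO cells, read out by a cell viability assay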
Description: SANGER: Inhibition of human GOTO cell growth in a cell viability assay.

GR-ST = type: functional, cell-based
Description: SANGER: Inhibition of human GR-ST cell growth in a cell viability assay.

GT3TKB = type: functional, cell-based;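 note: growth inhibition of the cell line, read out with a cell viability assay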
Description: SANGER: Inhibition of human GT3TKB cell growth in a cell viability assay.

HCE-4 = type: functional, cell-based;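 note: cell viability assay measuring inhibition of growth in the human HCE-4 cell line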
Description: SANGER: Inhibition of human HCE-4 cell growth in a cell viability assay.

HCE-T = type: functional, cell-based;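 note: cell viability assay read-out, reporting inhibition of HCE-T cell growth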
Description: SANGER: Inhibition of human HCE-T cell growth in a cell viability assay.

HEL = type: functional, cell-based;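 note: growth inhibition of HEL cells, read out with a cell viability assay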
Description: SANGER: Inhibition of human HEL cell growth in a cell viability assay.

HOP-62 = type: functional, cell-based;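 note: cell growth inhibition determined with a viability assay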
Description: SANGER: Inhibition of human HOP-62 cell growth in a cell viability assay.

IST-MES1 = type: functional, cell-based;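 note: growth inhibition of IST-MES1 cells, measured with a cell viability assay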
Description: SANGER: Inhibition of human IST-MES1 cell growth in a cell viability assay.

J-RT3-T3-5 = type: functional, cell-based;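 note: cell viability assay measuring growth inhibition of human J-RT3-T3-5 cells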
Description: SANGER: Inhibition of human J-RT3-T3-5 cell growth in a cell viability assay.

JVM-2 = type: functional, cell-based;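 note: growth inhibition of JVM-2 cells determined by a cell viability assay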
Description: SANGER: Inhibition of human JVM-2 cell growth in a cell viability assay.

K5 = type: functional, cell-based
Description: SANGER: Inhibition of human K5 cell growth in a cell viability assay.

KALS-1 = type: functional, cell-based;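 note: growth inhibition of KALS-1 cells, determined with a cell viability assay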
Description: SANGER: Inhibition of human KALS-1 cell growth in a cell viability assay.

KE-37 = type: functional, cell-based;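 note: growth inhibition of KE-37 cells, read out with a cell viability assay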
Description: SANGER: Inhibition of human KE-37 cell growth in a cell viability assay.

KNS-42 = type: functional, cell-based;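 note: growth inhibition of KNS-42 cells, read out with a cell viability assay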
Description: SANGER: Inhibition of human KNS-42 cell growth in a cell viability assay.

KNS-81-FD = type: functional, cell-based;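 note: growth inhibition of KNS-81-FD cells, read out with a cell viability assay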
Description: SANGER: Inhibition of human KNS-81-FD cell growth in a cell viability assay.

KS-1 = type: functional, cell-based;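 note: growth inhibition of KS-1 cells, read out with a cell viability assay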
Description: SANGER: Inhibition of human KS-1 cell growth in a cell viability assay.

KU812 cell line = type: functional, cell-based;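 note: growth inhibition of KU812 cells, read out with a cell viability assay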
Description: SANGER: Inhibition of human KU812 cell growth in a cell viability assay.

KURAMOCHI = type: functional, cell-based;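 note: growth inhibition of KURAMOCHI cells, read out with a cell viability assay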
Description: SANGER: Inhibition of human KURAMOCHI cell growth in a cell viability assay.

KY821 = type: functional, cell-based;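 note: growth inhibition of human KY821 cells, read out by a cell viability assay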
Description: SANGER: Inhibition of human KY821 cell growth in a cell viability assay.

LB1047-RCC = type: functional, cell-based;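 note: inhibition of cell growth, determined with a cell viability assay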
Description: SANGER: Inhibition of human LB1047-RCC cell growth in a cell viability assay.

LB373-MEL-D = type: functional, cell-based;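 note: growth inhibition of the cell line, read out in a cell viability assay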
Description: SANGER: Inhibition of human LB373-MEL-D cell growth in a cell viability assay.

LNCaP-Clone-FGC = type: functional, cell-based
Description: SANGER: Inhibition of human LNCaP-Clone-FGC cell growth in a cell viability assay.

LS-123 = type: functional, cell-based
Description: SANGER: Inhibition of human LS-123 cell growth in a cell viability assay.

LS-411N = type: functional, cell-based
Lu-65 = type: functional, cell-based;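 note: growth inhibition of Lu-65 cancer cells, read out by a cell viability assay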
Description: SANGER: Inhibition of human LU-65 cell growth in a cell viability assay.

MLMA = type: functional, cell-based;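 note: growth inhibition of MLMA cells (human), determined through a cell viability readout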
Description: SANGER: Inhibition of human MLMA cell growth in a cell viability assay.

MOLT-4 = type: functional, cell-based;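 note: growth inhibition of MOLT-4 cells, determined with a cell viability readout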
Description: SANGER: Inhibition of human MOLT-4 cell growth in a cell viability assay.

MSTO-211H = type: functional, cell-based
Description: SANGER: Inhibition of human MSTO-211H cell growth in a cell viability assay.

NB5 = type: functional, cell-based;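 note: growth inhibition of NB5 cells, read out as cell viability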
Description: SANGER: Inhibition of human NB5 cell growth in a cell viability assay.

NCI-H1648 = type: functional, cell-based;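 note: cell viability assay measuring inhibition of NCI-H1648 cell growth, from the Sanger screening data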
Description: SANGER: Inhibition of human NCI-H1648 cell growth in a cell viability assay.

NCI-H1650 = type: functional, cell-based;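 note: growth inhibition of human NCI-H1650 cells measured by a cell viability assay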
Description: SANGER: Inhibition of human NCI-H1650 cell growth in a cell viability assay.

NCI-H23 = type: functional, cell-based;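 note: cell viability assay measuring growth inhibition of NCI-H23 cells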
Description: SANGER: Inhibition of human NCI-H23 cell growth in a cell viability assay.

NCI-H720 = type: functional, cell-based;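 note: growth inhibition of human NCI-H720 cells determined by a cell viability assay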
Description: SANGER: Inhibition of human NCI-H720 cell growth in a cell viability assay.

NEC8 = type: functional, cell-based;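 note: growth inhibition of human NEC8 cells, read out by a cell viability assay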
Description: SANGER: Inhibition of human NEC8 cell growth in a cell viability assay.

NMC-G1 = type: functional, cell-based;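 note: growth inhibition of the NMC-G1 cell line, measured with a cell viability read-out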
Description: SANGER: Inhibition of human NMC-G1 cell growth in a cell viability assay.

NTERA-2-cl-D1 = type: functional, cell-based;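 note: inhibition of cell growth, measured with a cell viability assay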
Description: SANGER: Inhibition of human NTERA-S-cl-D1 cell growth in a cell viability assay.

OMC-1 = type: functional, cell-based;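 note: growth inhibition of the OMC-1 cell line, measured by a cell viability assay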
Description: SANGER: Inhibition of human OMC-1 cell growth in a cell viability assay.

P30-OHK = type: functional, cell-based;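 note: growth inhibition of the P30-OHK cell line, read out with a cell viability assay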
Description: SANGER: Inhibition of human P30-OHK cell growth in a cell viability assay.

RH-1 = type: functional, cell-based;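 note: growth inhibition of human RH-1 cells, read out with a cell viability assay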
Description: SANGER: Inhibition of human RH-1 cell growth in a cell viability assay.

SBC-1 = type: functional, cell-based;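 note: cell viability assay measuring growth inhibition of the SBC-1 cell line, IC50 being the concentration that halves growth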
Description: SANGER: Inhibition of human SBC-1 cell growth in a cell viability assay.

SCC-15 = type: functional, cell-based;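 note: growth inhibition of SCC-15 cells, read out with a cell viability assay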
Description: SANGER: Inhibition of human SCC-15 cell growth in a cell viability assay.

SH-4 = type: functional, cell-based;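 note: growth inhibition of SH-4 cells, read out with a cell viability assay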
Description: SANGER: Inhibition of human SH-4 cell growth in a cell viability assay.

SHP77 = type: functional, cell-based, SHP-77;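 note: growth inhibition of human SHP-77 cells measured by a cell viability assay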
Description: SANGER: Inhibition of human SHP-77 cell growth in a cell viability assay.

SK-N-DZ = type: functional, cell-based;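 note: growth inhibition of the cancer cell line, read out through a viability assay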
Description: SANGER: Inhibition of human SK-N-DZ cell growth in a cell viability assay.

SNU-C2B = type: functional, cell-based;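 note: cell viability readout used to measure compound-driven suppression of SNU-C2B cell proliferation, IC50 marking half-maximal growth inhibition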
Description: SANGER: Inhibition of human SNU-C2B cell growth in a cell viability assay.

8-MG-BA = type: functional, cell-based;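 note: growth inhibition of 8-MG-BA cells, read out with a cell viability assay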
Description: SANGER: Inhibition of human 8-MG-BA cell growth in a cell viability assay.

ALL-PO = type: functional, cell-based
Description: SANGER: Inhibition of human ALL-PO cell growth in a cell viability assay.

BB65-RCC = type: functional, cell-based
Description: SANGER: Inhibition of human BB65-RCC cell growth in a cell viability assay.

BT-474 = type: functional, cell-based
Description: SANGER: Inhibition of human BT-474 cell growth in a cell viability assay.

C2BBe1 = type: functional, cell-based
Description: SANGER: Inhibition of human C2BBe1 cell growth in a cell viability assay.

TK-10 = type: functional, cell-based
Description: SANGER: Inhibition of human TK10 cell growth in a cell viability assay.

U-266 = type: functional, cell-based
Description: SANGER: Inhibition of human U-266 cell growth in a cell viability assay.

CCRF-CEM = type: functional, cell-based
Description: SANGER: Inhibition of human CCRF-CEM cell growth in a cell viability assay.

CGTH-W-1 = type: functional, cell-based
Description: SANGER: Inhibition of human CGTH-W-1 cell growth in a cell viability assay.

COLO-668 = type: functional, cell-based
Description: SANGER: Inhibition of human COLO-668 cell growth in a cell viability assay.

Cc1n[nH]c2ccc(-c3cncc(OC[C@@H](N)Cc4c[nH]c5ccccc45)c3)cc12 [A-443654]
IC50 (COR-L88): 738 nM
IC50 (D-263MG): > 1020 nM
IC50 (D283 Med): > 1020 nM
IC50 (DSH1): 361 nM
IC50 (EC-GI-10): > 1020 nM
IC50 (EM-2): 583 nM
IC50 (ES3): > 1020 nM
IC50 (ES8): 151 nM
IC50 (EW-11): > 1020 nM
IC50 (EW-24): 837 nM
IC50 (GCIY): 261 nM
IC50 (GOTO): 366 nM
IC50 (GR-ST): 448 nM
IC50 (GT3TKB): > 1020 nM
IC50 (HCE-4): 104 nM
IC50 (HCE-T): 451 nM
IC50 (HEL): 422 nM
IC50 (HOP-62): 140 nM
IC50 (IST-MES1): > 1020 nM
IC50 (J-RT3-T3-5): 185 nM
IC50 (JVM-2): > 1020 nM
IC50 (K5): 428 nM
IC50 (KALS-1): 203 nM
IC50 (KE-37): 110 nM
IC50 (KNS-42): 248 nM
IC50 (KNS-81-FD): > 1020 nM
IC50 (KS-1): 53.5 nM
IC50 (KU812 cell line): 96.5 nM
IC50 (KURAMOCHI): 244 nM
IC50 (KY821): 246 nM
IC50 (LB1047-RCC): 87.2 nM
IC50 (LB373-MEL-D): 531 nM
IC50 (LNCaP-Clone-FGC): > 1020 nM
IC50 (LS-123): 337 nM
IC50 (LS-411N): 87.5 nM
IC50 (Lu-65): > 1020 nM
IC50 (MLMA): 447 nM
IC50 (MOLT-4): 131 nM
IC50 (MSTO-211H): > 1020 nM
IC50 (NB5): 665 nM
IC50 (NCI-H1648): 183 nM
IC50 (NCI-H1650): > 1020 nM
IC50 (NCI-H23): > 1020 nM
IC50 (NCI-H720): 154 nM
IC50 (NEC8): > 1020 nM
IC50 (NMC-G1): 880 nM
IC50 (NTERA-2-cl-D1): 27.6 nM
IC50 (OMC-1): 191 nM
IC50 (P30-OHK): > 1020 nM
IC50 (RH-1): > 1020 nM
IC50 (SBC-1): 160 nM
IC50 (SCC-15): > 1020 nM
IC50 (SH-4): 185 nM
IC50 (SHP77): > 1020 nM
IC50 (SK-N-DZ): > 1020 nM
IC50 (SNU-C2B): 290 nM
IC50 (8-MG-BA): 163 nM
IC50 (ALL-PO): 797 nM
IC50 (BB65-RCC): 597 nM
IC50 (BT-474): 584 nM
IC50 (C2BBe1): > 1020 nM
IC50 (TK-10): 226 nM
IC50 (U-266): > 1020 nM
IC50 (CCRF-CEM): 144 nM
IC50 (CGTH-W-1): 246 nM
IC50 (COLO-668): 405 nM

CC[C@]1(O)C[C@@H]2CN(CCc3c([nH]c4ccccc34)[C@@](C(=O)OC)(c3cc4c(cc3OC)N(C)[C@H]3[C@@](O)(C(=O)OC)[C@H](OC(C)=O)[C@]5(CC)C=CCN6CC[C@]43[C@@H]65)C2)C1 [VINBLASTINE]
IC50 (COR-L88): 24.3 nM
IC50 (D-263MG): 9.28 nM
IC50 (D283 Med): 39.1 nM
IC50 (DSH1): 23.2 nM
IC50 (EC-GI-10): 3.53 nM
IC50 (EM-2): 5.32 nM
IC50 (ES3): 2.77 nM
IC50 (ES8): 3.24 nM
IC50 (EW-11): 7.15 nM
IC50 (EW-24): 18 nM
IC50 (GCIY): 49.7 nM
IC50 (GOTO): 8.21 nM
IC50 (GR-ST): 7.63 nM
IC50 (GT3TKB): 1.92 nM
IC50 (HCE-4): 18.1 nM
IC50 (HCE-T): 20 nM
IC50 (HEL): 32.8 nM
IC50 (HOP-62): > 100 nM
IC50 (IST-MES1): 67.7 nM
IC50 (J-RT3-T3-5): 0.788 nM
IC50 (JVM-2): > 100 nM
IC50 (K5): 4.68 nM
IC50 (KALS-1): 7.79 nM
IC50 (KE-37): 3.99 nM
IC50 (KNS-42): 18.7 nM
IC50 (KNS-81-FD): 20.2 nM
IC50 (KS-1): 7.99 nM
IC50 (KU812 cell line): 16.8 nM
IC50 (KURAMOCHI): > 100 nM
IC50 (KY821): 3.69 nM
IC50 (LB1047-RCC): 40.3 nM
IC50 (LB373-MEL-D): 64.1 nM
IC50 (LNCaP-Clone-FGC): 8.28 nM
IC50 (LS-123): 53.3 nM
IC50 (LS-411N): 66.4 nM
IC50 (Lu-65): > 100 nM
IC50 (MLMA): 4.65 nM
IC50 (MOLT-4): 3.85 nM
IC50 (MSTO-211H): 12.2 nM
IC50 (NB5): 15.7 nM
IC50 (NCI-H1648): 5.52 nM
IC50 (NCI-H1650): > 100 nM
IC50 (NCI-H23): 5.71 nM
IC50 (NCI-H720): 6.88 nM
IC50 (NEC8): 5.12 nM
IC50 (NMC-G1): 8.48 nM
IC50 (NTERA-2-cl-D1): 5.89 nM
IC50 (OMC-1): > 100 nM
IC50 (P30-OHK): 11.1 nM
IC50 (RH-1): 3.4 nM
IC50 (SBC-1): 8.1 nM
IC50 (SCC-15): 23.1 nM
IC50 (SH-4): 43.5 nM
IC50 (SHP77): > 100 nM
IC50 (SK-N-DZ): 37.4 nM
IC50 (SNU-C2B): 24.7 nM
IC50 (8-MG-BA): 6.34 nM
IC50 (ALL-PO): 5.21 nM
IC50 (BB65-RCC): 20.7 nM
IC50 (BT-474): 94.2 nM
IC50 (C2BBe1): 16.9 nM
IC50 (TK-10): 42.4 nM
IC50 (U-266): 10.8 nM
IC50 (CCRF-CEM): 10.1 nM
IC50 (CGTH-W-1): 5.56 nM
IC50 (COLO-668): > 100 nM
